23 compounds from patent US20080085893A1, “MATRIX METALLOPROTEASE INHIBITORS” (priority 2006, published 2008) can be followed below.

Values joined by “and” are separate entries in the source; they are usually repeats but may differ in a detail not shown here. Equal entries are not always repeated. Where two headings read alike, the source gives them in different places.

What is called inhibition is the relative decrease from the control value, in per cent.

In assay [1] the target is T1, human MMP-2 (amino acids 1-660) (Homo sapiens, UniProt P08253).
T1 construct: human MMP-2 (amino acids 1-660); made in house
T1 sequence (P08253 110-660): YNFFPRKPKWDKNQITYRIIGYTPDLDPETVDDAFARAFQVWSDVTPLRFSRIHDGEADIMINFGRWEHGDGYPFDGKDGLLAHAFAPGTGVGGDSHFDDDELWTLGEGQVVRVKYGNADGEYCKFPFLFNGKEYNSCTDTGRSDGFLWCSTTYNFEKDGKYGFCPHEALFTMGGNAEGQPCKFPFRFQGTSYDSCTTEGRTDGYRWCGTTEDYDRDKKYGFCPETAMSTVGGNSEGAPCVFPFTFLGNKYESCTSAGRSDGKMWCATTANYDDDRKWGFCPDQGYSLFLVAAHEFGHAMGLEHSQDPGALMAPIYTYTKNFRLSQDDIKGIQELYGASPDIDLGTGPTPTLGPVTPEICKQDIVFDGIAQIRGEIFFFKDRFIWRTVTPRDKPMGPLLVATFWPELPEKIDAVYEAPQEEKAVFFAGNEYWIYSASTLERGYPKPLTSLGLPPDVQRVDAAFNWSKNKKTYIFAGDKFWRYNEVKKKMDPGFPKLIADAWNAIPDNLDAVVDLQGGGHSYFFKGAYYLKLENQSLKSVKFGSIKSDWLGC
Put plainly: MMP dose response assay for determining IC50, MMP-2. It is filed as biochemical. The settings on record: for inhibition at 10 µM: read-out: MMP-2 % inhibition at 10 μM. As for the experimental part:
(§1) MMP Dose Response Assay for Determining IC50
(§2) The following method was used for determining IC50 values of different inhibitor compounds against multiple MMP enzymes. Frozen stocks of recombinantly produced MMPs were prepared in assay buffer (50 mM HEPES pH 7.4, 10 mM CaCl2, 0.05% Brij-35). […] Enzyme concentrations in the assay were determined empirically and set such that proteolytic activity was maintained in a linear range over the time-course of the experiment. […] Each concentration for each test compound was tested in triplicate. MMP enzymes were equilibrated with compounds for 1 hour at room temperature, then a fluorescent-quench substrate (Acetyl-Cys(Eu)-Pro-Leu-Gly-Leu-Lys-(QSY7)-Ala-Arg-amide) was added to a final concentration of 100 nM. […] Data was analyzed by first calculating average background value from wells that contained only substrate, and this value was subtracted from the entire plate. The 100%, or maximum value, was determined by averaging control wells that contained enzyme, substrate and DMSO. For each well, the percent of control was calculated by dividing the well value by the average DMSO value obtained above.

The target in assay [2] is T2, human MMP-9 (amino acids 107-446) (Homo sapiens, UniProt P14780).
T2 construct: human MMP-9 (amino acids 107-446); made in house
Put plainly: MMP dose response assay for determining IC50, MMP-9. It is filed as biochemical. The settings on record: for IC50: recombinant enzyme, fluorescent-quench substrate 100 nM, read-out: MMP-9; for inhibition at 10 µM: read-out: MMP-9 % inhibition at 10 μM. As for the experimental part:
as §1, §2

[3] abbreviates: recombinant enzyme, fluorescent-quench substrate 100 nM, read-out: MMP-2.

T2 sequence (P14780 107-446): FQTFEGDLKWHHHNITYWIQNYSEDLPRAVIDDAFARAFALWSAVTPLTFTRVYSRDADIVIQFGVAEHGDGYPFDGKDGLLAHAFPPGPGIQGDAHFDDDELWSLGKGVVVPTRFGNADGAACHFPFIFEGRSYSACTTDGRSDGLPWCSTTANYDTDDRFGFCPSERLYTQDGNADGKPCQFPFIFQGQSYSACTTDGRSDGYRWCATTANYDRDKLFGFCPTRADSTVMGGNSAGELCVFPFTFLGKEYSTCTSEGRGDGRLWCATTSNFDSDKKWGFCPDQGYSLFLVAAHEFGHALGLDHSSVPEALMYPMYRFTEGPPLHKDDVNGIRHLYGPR

Consider `CC(C)CN(O)C(=O)[C@H](CN(c1ccc(Oc2ccc(C(F)(F)F)cc2)cc1)S(C)(=O)=O)N1CCOCC1` [Example 5, N-Hydroxy,N-(2-methylpropyl)(2S)-2-(morpholin-4-yl)-3-{N-[4-(4-trifluoromethylphenoxy)phenyl],N-methanesulfonylamino}propionamide], for which the IC50 turned out to be 261 nM in assay [1] (setting [3]) and 0.0879 µM in assay [2]. For the compound `Cc1ccc(Oc2ccc(N(C[C@@H](O)C(=O)NO)S(C)(=O)=O)cc2)cc1` [Example 7, N-Hydroxy (2R)-2-hydroxy-3-{N-[4-(4-methylphenoxy)phenyl],N-methanesulfonylamino}propionamide], the IC50 in assay [1] (setting [3]) was 81.7 nM and 52 nM; in assay [2], 0.0206 µM and 0.00313 µM.

In the case of `Cc1ccc(Oc2ccc(N(C[C@H](O)C(=O)NO)S(C)(=O)=O)cc2)cc1` [Example 8, N-Hydroxy (2S)-2-hydroxy-3-{N-[4-(4-methylphenoxy)phenyl],N-methanesulfonylamino}propionamide], the IC50 in assay [1] (setting [3]) is 88.5 nM and 67.8 nM and 98.2 nM and 65 nM and 51.9 nM and 71.5 nM; in assay [2], 0.0105 µM and 0.0111 µM and 0.0101 µM and 0.00337 µM and 0.00469 µM and 0.00757 µM.

Consider `CS(=O)(=O)N(C[C@@H](O)C(=O)NO)c1ccc(-c2ccccc2)cc1` [Example 9, N-Hydroxy (2R)-2-hydroxy-3-[N-(4-phenyl)phenyl,N-methanesulfonylamino]propionamide], for which the inhibition at 10 µM amounted to 83.6% in assay [1] and 78.7% in assay [2].

With `CS(=O)(=O)N(C[C@H](O)C(=O)NO)c1ccc(-c2ccccc2)cc1` [Example 10, N-Hydroxy (2S)-2-hydroxy-3-[N-(4-phenyl)phenyl,N-methanesulfonylamino]propionamide], the results for the inhibition at 10 µM in assay [1] and in assay [2] were 87% and 79%, respectively.

Consider `COc1ccc(N[C@@H](CN(c2ccc(Oc3ccc(C)cc3)cc2)S(C)(=O)=O)C(=O)NO)cc1` [Example 48, N-Hydroxy (2S)-2-(4-methoxyphenyl)amino-3-{N-[4-(4-methylphenoxy)phenyl],N-methanesulfonylamino}propionamide], for which the IC50 in assay [1] (setting [3]) was found to be 18.5 nM; in assay [2] it was 0.00069 µM. Consider `Cc1ccc(Sc2ccc(N(C[C@H](O)C(=O)NO)S(C)(=O)=O)cc2)cc1` [Example 49, N-Hydroxy (2S)-2-hydroxy-3-{N-[4-(4-methylthiophenoxy)phenyl],N-methanesulfonylamino}propionamide], for which the IC50 was 274 nM and 321 nM in assay [1] (setting [3]); 0.0628 µM and 0.0445 µM in assay [2]. Turning to `Cc1ccc(Oc2ccc(N(C[C@H](Nc3ccc(OC(F)(F)F)cc3)C(=O)NO)S(C)(=O)=O)cc2)cc1` [Example 50, N-Hydroxy (2S)-3-{N-[4-(4-methylphenoxy)phenyl],N-methanesulfonylamino}-2-(4-trifluoromethoxyphenyl)aminopropionamide], the IC50 amounted to 877 nM in assay [1] (setting [3]) and 0.0736 µM in assay [2]. Taken in the same sequence, the figures for `COc1cccc(N[C@@H](CN(c2ccc(Oc3ccc(C)cc3)cc2)S(C)(=O)=O)C(=O)NO)c1` [Example 51, N-Hydroxy (2S)-2-(3-methoxyphenyl)amino-3-{N-[4-(4-methylphenoxy)phenyl],N-methanesulfonylamino}propionamide] were 26.8 nM and 0.00062 µM. As for `Cc1ccc(Oc2ccc(N(C[C@H](Nc3cccc(OC(F)(F)F)c3)C(=O)NO)S(C)(=O)=O)cc2)cc1` [Example 52, N-Hydroxy (2S)-3-{N-[4-(4-methylphenoxy)phenyl],N-methanesulfonylamino}-2-(3-trifluoromethoxyphenyl)aminopropionamide], the values for the IC50 in assay [1] (setting [3]) and in assay [2] were 1080 nM and 0.165 µM, respectively.

Take `CS(=O)(=O)N(C[C@H](O)C(=O)NO)c1ccc(Oc2ccc(C(F)(F)F)cn2)cc1` [Example 53, N-Hydroxy (2S)-2-hydroxy-3-{N-{4-[(5-trifluoromethylpyridin-2-yl)oxy]phenyl},N-methanesulfonylamino}propionamide]: the IC50 in assay [2] turned out to be 0.472 µM. Regarding `CS(=O)(=O)N(C[C@H](O)C(=O)NO)c1ccc(Oc2ccc(C(F)(F)F)cc2)cc1` [Example 54, N-Hydroxy (2S)-2-hydroxy-3-{N-[4-(4-trifluoromethylphenoxy)phenyl],N-methanesulfonylamino}propionamide], the IC50 in assay [1] (setting [3]) is 175 nM and 102 nM; in assay [2] it was 0.0172 µM and 0.0107 µM.

For `CS(=O)(=O)N(C[C@H](Nc1cccc(F)c1)C(=O)NO)c1ccc(Oc2ccc(C(F)(F)F)cn2)cc1` [Example 55, N-Hydroxy (2S)-2-(3-fluorophenyl)amino-3-{N-{4-[(5-trifluoromethylpyridin-2-yl)oxy]phenyl},N-methanesulfonylamino}propionamide], the IC50 in assay [1] (setting [3]) is 1560 nM; in assay [2], 0.41 µM.

For the compound `CC(C)N[C@@H](CN(c1ccc(Oc2ccc(C(F)(F)F)cn2)cc1)S(C)(=O)=O)C(=O)NO` [Example 56, N-Hydroxy (2S)-2-(2-propyl)amino-3-{N-{4-[(5-trifluoromethylpyridin-2-yl)oxyl]phenyl},N-methanesulfonylamino}propionamide], the IC50 was 396 nM in assay [1] (setting [3]) and 0.144 µM in assay [2].

Take `CS(=O)(=O)N(C[C@@H](C(=O)NO)N1CCOCC1)c1ccc(Oc2ccc(C(F)(F)F)cn2)cc1` [Example 57, N-Hydroxy (2S)-2-(morpholin-4-yl)-3-{N-{4-[(5-trifluoromethylpyridin-2-yl)oxy]phenyl},N-methanesulfonylamino}propionamide]: the IC50 was found to be 406 nM in assay [1] (setting [3]) and 0.227 µM in assay [2]. Taken in the same sequence, the figures for `CC(C)N[C@@H](CN(c1ccc(Oc2ccc(C(F)(F)F)cc2)cc1)S(C)(=O)=O)C(=O)NO` [Example 58, N-Hydroxy (2S)-2-(2-propyl)amino-3-{N-[4-(4-trifluoromethylphenoxy)phenyl],N-methanesulfonylamino}propionamide] were 9.16 nM and 0.00237 µM. For the compound `CS(=O)(=O)N(C[C@H](Nc1cccc(F)c1)C(=O)NO)c1ccc(Oc2ccc(C(F)(F)F)cc2)cc1` [Example 59, N-Hydroxy (2S)-2-(3-fluorophenyl)amino-3-{N-[4-(4-trifluoromethylphenoxy)phenyl],N-methanesulfonylamino}propionamide], the IC50 in assay [1] (setting [3]) was determined as 466 nM; in assay [2], 0.0319 µM. As for `COc1ccc(C#Cc2ccc(N(C[C@H](O)C(=O)NO)S(C)(=O)=O)cc2)cc1` [Example 61, N-Hydroxy (2S)-2-hydroxy-3-{N-[4-(4-methoxyphenylacetylene)phenyl],N-methanesulfonylamino}propionamide], the figures for the IC50 in assay [1] (MMP-2 (nM)) and in assay [2] were 31.6 nM and 0.091 µM, respectively. Regarding `CS(=O)(=O)N(C[C@@H](C(=O)NO)N1CCC(O)CC1)c1ccc(Oc2ccc(Cl)cc2)cc1` [Example 88, N-Hydroxy (2S)-3-{N-[4-(4-chlorophenoxy)phenyl],N-methanesulfonylamino}-2-(4-hydroxypiperidin-1-yl)propionamide], the values for the IC50 in assay [1] (setting [3]) and in assay [2] were 3.13 nM and 0.0009 µM, respectively.

Consider `CS(=O)(=O)N(C[C@@H](C(=O)NO)N1CCOCC1)c1ccc(Oc2ccc(Cl)cc2)cc1` [Example 89, N-Hydroxy (2S)-2-(morpholin-4-yl)-3-{N-[4-(4-chlorophenoxy)phenyl],N-methanesulfonylamino}propionamide], for which the IC50 worked out at 5.52 nM in assay [1] (setting [3]) and 0.002 µM in assay [2]. As for `CS(=O)(=O)N(C[C@H](O)C(=O)NO)c1ccc(Sc2ccc(F)cc2)cc1` [Example 90, N-Hydroxy (2S)-2-hydroxy-3-{N-[4-(4-fluorothiophenoxy)phenyl],N-methanesulfonylamino}propionamide], the IC50 is 312 nM and 254 nM in assay [1] (setting [3]); 0.0644 µM and 0.0392 µM in assay [2]. For `CC(C)N1CCN([C@@H](CN(c2ccc(Oc3ccc(Cl)cc3)cc2)S(C)(=O)=O)C(=O)NO)CC1` [Example 91, N-Hydroxy (2S)-3-{N-[4-(4-chlorophenoxy)phenyl],N-methanesulfonylamino}-2-[4-(2-propyl)piperazin-1-yl]Propionamide], the IC50 stood at 8.77 nM in assay [1] (setting [3]) and 0.00311 µM in assay [2]. Taken in the same sequence, the figures for `CN1CCN([C@@H](CN(c2ccc(Oc3ccc(Cl)cc3)cc2)S(C)(=O)=O)C(=O)NO)CC1` [Example 92, N-Hydroxy (2S)-3-{N-[4-(4-chlorophenoxy)phenyl],N-methanesulfonylamino}-2-(4-methylpiperazin-1-yl)propionamide] were 6.5 nM and 0.00239 µM.
